Measurements reported in US10035766B2, “Compositions for preventing and/or treating lysosomal storage disorders” (Amicus Therapeutics, Inc., priority 2009, dated 2018).
Counter-ions that a name gives are not always drawn. Like-named read-outs stand apart in the source and are kept apart here. Blank lines part the entries; values can stand above or below the molecule they belong to.

How the values were obtained:
lysosomal GCase = biological target: T1, lysosomal GCase (Homo sapiens, UniProt P04062); assay: In situ lysosomal GCase inhibition and washout in fibroblasts from a normal subject (PFBFDβGlu substrate); assay type: cell-based; conditions: for in situ washout: after 16-24 hours at IC90, single exponential fit of activity recovery over 8 hours
T1 construct: fibroblasts established from a normal subject; endogenous in cells; host or cells: fibroblasts established from a normal subject
T1 sequence (P04062 40-536): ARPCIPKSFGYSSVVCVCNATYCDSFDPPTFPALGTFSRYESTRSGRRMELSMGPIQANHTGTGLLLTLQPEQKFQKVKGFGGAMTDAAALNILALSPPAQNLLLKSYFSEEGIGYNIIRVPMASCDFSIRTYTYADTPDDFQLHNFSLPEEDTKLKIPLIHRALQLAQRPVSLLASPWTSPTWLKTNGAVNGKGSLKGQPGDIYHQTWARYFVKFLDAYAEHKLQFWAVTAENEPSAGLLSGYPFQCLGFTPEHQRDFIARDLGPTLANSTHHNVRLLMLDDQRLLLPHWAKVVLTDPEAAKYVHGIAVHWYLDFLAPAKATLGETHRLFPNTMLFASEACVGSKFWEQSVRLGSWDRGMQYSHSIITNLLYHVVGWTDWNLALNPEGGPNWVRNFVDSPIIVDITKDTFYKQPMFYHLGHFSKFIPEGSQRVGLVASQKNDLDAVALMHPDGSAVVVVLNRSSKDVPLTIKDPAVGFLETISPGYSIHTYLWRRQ
Procedure: The effect of the novel compounds of the present invention on lysosomal GCase activity was assayed in situ using fibroblasts established from a normal subject. Cells seeded in 48-well plates were incubated with the indicated concentrations of compound for 16-24 hours. For the dose-response assays, cells were incubated with the in situ substrate 5-(pentafluorobenzoylamino)fluorescein di-β-D-glucopyranoside (PFBFDβGlu) for 1 hour and subsequently lysed to determine the extent of substrate hydrolysis in the presence of compound. […] Inhibition was determined as the ratio of activity in the presence of compound to that in the absence of compound. […] Cells were washed extensively and incubated in drug-free medium to allow net compound efflux from cells. Cells were then tested for lysosomal GCase activity at 2 hour intervals over a total period of 8 hours following compound removal. The increase in activity over time was fitted with a single exponential function to determine the compound's washout time.

[1] = GCase enhancement in brain and spleen after oral dosing over 2 weeks; assay type: in vivo, mice; conditions: male, C57BL/6, mouse, brain homogenate as diluted in the GCase assay, po, brain, read-out: Compound concentration in GCase assay
Procedure: The ability of orally administered test compounds ((3R,4R,5S)-5-(difluoromethyl)piperidine-3,4-diol, (3R,4R,5S)-5-(1-fluoroethyl)piperidine-3,4-diol, (3R,4R,5S)-5-((R)-1-fluoropropyl)piperidine-3,4-diol hydrochloride, or (3R,4R,5S)-5-benzylpiperidine-3,4-diol) to elevate GCase levels was assessed in mice. For this purpose, 8-week old wild-type male mice (C57BL/6) were administered a single p.o. (gavage) dose of a compound of the present invention (i.e., (3R,4R,5S)-5-(difluoromethyl)piperidine-3,4-diol, (3R,4R,5S)-5-(1-fluoroethyl)piperidine-3,4-diol, (3R,4R,5S)-5-((R)-1-fluoropropyl)piperidine-3,4-diol hydrochloride, or (3R,4R,5S)-5-benzylpiperidine-3,4-diol). The dosing solutions were prepared in water. Compounds were administered over 2 weeks as follows: week 1, Mon-Fri (On), Sat-Sun (Off); week 2, Mon-Thu (On); necropsy on Friday. Thus, a total of 9 doses (dosing solutions prepared fresh every day) were given to each mouse, with a 24-hour washout between the last dose and necropsy.
Plasma was collected by spinning blood at 2700 g for 10 minutes at 4° C. Liver, spleen, lung, and brain tissues were removed, washed in cold PBS, blotted dry, flash frozen on dry ice, and stored at −80° C. until analysis. GCase levels were measured by homogenizing approximately 50 mg tissue in 500 μL McIlvane (MI) buffer (100 mM sodium citrate, 200 mM sodium phosphate dibasic, 0.25% sodium taurocholate, and 0.1% Triton X-100, pH 5.2) at pH 5.2 for 3-5 seconds on ice with a micro homogenizer. Homogenates were then incubated at room temperature without and with 2.5 mM conduritol-B-epoxide (CBE) for 30 min. Finally, 3.7 mM 4-methylumbeliferryl-β-glucoside (4-MUG) substrate was added and incubated at 37° C. for 60 min. […] Fluorescence was measured on a plate reader for 1 sec/well using 355 nm excitation and 460 nm emission. Total protein was determined in lysates using the MicroBCA kit according to the manufacturer's instructions. A 4-methylumbelliferone (4-MU) standard curve ranging from 1.0 nM to 50 μM was run in parallel for conversion of raw fluorescence data to absolute GCase activity (in the presence and absence of CBE) and expressed as nanomoles of 4-MU released per milligram of protein per hour (nmol/mg protein/hr). GCase levels and protein levels were calculated using Microsoft Excel (Redmond, Wash.) and GraphPad Prism version 4.02.

Rat pharmacokinetics = assay type: in vivo, rats; conditions: for AUC(0-t): AUC0-24 hr
Procedure: Pharmacokinetic (PK) data was obtained in rats to assess the bioavailability of test compound. In particular, the following PK parameters were calculated: bioavailability as measured by area under the Concentration/Time curve (AUC), fraction of dose available (% F; further defined below), clearance (CL), volume of distribution (Vd), and half-life (t½). […] Three rats were used per dosing group. Blood was collected over a 24-hr period. The time points for blood collection after intravenous administration were: 0, 2.5, 5, 10, 15, 30, 45 min, 1, 2, 4, 8, 12, and 24 hrs; time points for blood collection after p.o. administrations were: 0, 5, 15, 30, 45 min, 1, 2, 3, 4, 8, 12, and 24 hrs. Plasma samples were analyzed for compound levels by LC-MS/MS at PPD. Raw data was analyzed by non-compartmental analysis in Win-nonLin to calculate VD, % F, CL, and t1/2.

[2] = male, Sprague-Dawley, plasma, iv, 3 mg/kg, IV 3 mg/kg free base

inhibition of GCase activity (lysosomal GCase): inhibited GCase activity | concentration at 24 h ([1]; 100 mg/kg, 100 mg/kg FBE p.o.): 0.1 nM
SMILES: CC[C@@H](F)[C@H]1CNC[C@@H](O)[C@@H]1O.Cl [(3R,4R,5S)-5-((R)-1-fluoropropyl)-piperidine-3,4-diol hydrochloride]

dose proportionality (Rat pharmacokinetics): dose proportionality | inhibition of GCase activity (lysosomal GCase): inhibited GCase activity | in situ washout (lysosomal GCase): 1.2 ± 0.13 h
SMILES: O[C@@H]1[C@@H](Cc2ccccc2)CNC[C@H]1O [(3R,4R,5S)-5-benzyl-piperidine-3,4-diol]
pharmacokinetic profile (Rat pharmacokinetics): favorable pharmacokinetic profiles for drug development | volume of distribution (Rat pharmacokinetics): suggesting adequate penetration into peripheral tissues | in situ washout from the lysosomal compartment compared to IFG-tartrate (lysosomal GCase): considerably faster than reference compound IFG-tartrate

SMILES: O[C@H]1[C@H](O)CNC[C@@H]1C(F)F [Compound 6, (3R,4R,5S)-5-(Difluoromethyl)piperdine 3,4-diol Hydrochloride]
dose proportionality (Rat pharmacokinetics): dose proportionality | pharmacokinetic profile (Rat pharmacokinetics): favorable pharmacokinetic profiles for drug development | volume of distribution (Rat pharmacokinetics): suggesting adequate penetration into peripheral tissues | CL (Rat pharmacokinetics; IV 3 mg/kg free base): 25.92 mL/min/kg | Cmax (Rat pharmacokinetics; IV 3 mg/kg free base): 2323 ng/mL | VD (Rat pharmacokinetics; IV 3 mg/kg free base): 2.612 L/kg | % F (Rat pharmacokinetics; PO 10 mg/kg free base): 106% | Cmax (Rat pharmacokinetics; PO 10 mg/kg free base): 3363 ng/mL | t1/2 (Rat pharmacokinetics; PO 10 mg/kg free base): 2.58 h | % F (Rat pharmacokinetics; PO 30 mg/kg free base): 101% | Cmax (Rat pharmacokinetics; PO 30 mg/kg free base): 10037 ng/mL | t1/2 (Rat pharmacokinetics; PO 30 mg/kg free base): 2.75 h | % F (Rat pharmacokinetics; PO 100 mg/kg free base): 121% | Cmax (Rat pharmacokinetics; PO 100 mg/kg free base): 33200 ng/mL | t1/2 (Rat pharmacokinetics; PO 100 mg/kg free base): 2.41 h | in situ washout from the lysosomal compartment compared to IFG-tartrate (lysosomal GCase): considerably faster than reference compound IFG-tartrate | inhibition of GCase activity (lysosomal GCase): inhibited GCase activity | in situ washout (lysosomal GCase): 2.1 ± 0.30 h | concentration at 24 h ([1]; 10 mg/kg, 10 mg/kg FBE p.o.): 0.2 nM | concentration at 24 h ([1]; 100 mg/kg, 100 mg/kg FBE p.o.): 1 nM

dose proportionality (Rat pharmacokinetics): dose proportionality | Vd (Rat pharmacokinetics; [2]): 9.77 ± 1.55 L/kg | clearance (Rat pharmacokinetics; [2]): 45.1 mL/min/kg | AUC(0-t) (Rat pharmacokinetics; [2]): 1420 ± 188 ng·h/mL | Cmax (Rat pharmacokinetics; male, Sprague-Dawley, plasma, iv, 3 mg/kg, IV 3 mg/kg free base, read-out: Cmax): 2330 ± 373 ng/mL | half-life (Rat pharmacokinetics; male, Sprague-Dawley, plasma, iv, 3 mg/kg, IV 3 mg/kg free base, read-out: t1/2 (converted)): 2.6 ± 0.64 h | AUC(0-t) (Rat pharmacokinetics; male, Sprague-Dawley, plasma, po, 10 mg/kg, PO 10 mg/kg free base): 7100 ± 606 ng·h/mL | half-life (Rat pharmacokinetics; male, Sprague-Dawley, plasma, po, 10 mg/kg, PO 10 mg/kg free base, read-out: t1/2 (converted)): 2.8 ± 0.5 h | AUC(0-t) (Rat pharmacokinetics; male, Sprague-Dawley, plasma, po, 30 mg/kg, PO 30 mg/kg free base): 21700 ± 1710 ng·h/mL | Cmax (Rat pharmacokinetics; male, Sprague-Dawley, plasma, po, 30 mg/kg, PO 30 mg/kg free base, read-out: Cmax): 6920 ± 451 ng/mL | half-life (Rat pharmacokinetics; male, Sprague-Dawley, plasma, po, 30 mg/kg, PO 30 mg/kg free base, read-out: t1/2 (converted)): 2.7 ± 0.12 h | AUC(0-t) (Rat pharmacokinetics; male, Sprague-Dawley, plasma, po, 100 mg/kg, PO 100 mg/kg free base): 59500 ± 1000 ng·h/mL | Cmax (Rat pharmacokinetics; male, Sprague-Dawley, plasma, po, 100 mg/kg, PO 100 mg/kg free base, read-out: Cmax): 19400 ± 3030 ng/mL | half-life (Rat pharmacokinetics; male, Sprague-Dawley, plasma, po, 100 mg/kg, PO 100 mg/kg free base, read-out: t1/2 (converted)): 2.5 ± 0.19 h | bioavailability (Rat pharmacokinetics; male, Sprague-Dawley, plasma, po, approximately): 50 to 100% | half-life (Rat pharmacokinetics; male, Sprague-Dawley, plasma, read-out: half-life): 1 to 4 h | inhibition of GCase activity (lysosomal GCase): inhibited GCase activity | concentration at 24 h ([1]; 10 mg/kg, 10 mg/kg FBE p.o.): 0.2 nM
SMILES: CC(F)[C@H]1CNC[C@@H](O)[C@@H]1O (single isomer, unassigned)
pharmacokinetic profile (Rat pharmacokinetics): favorable pharmacokinetic profiles for drug development | volume of distribution (Rat pharmacokinetics): suggesting adequate penetration into peripheral tissues | in situ washout from the lysosomal compartment compared to IFG-tartrate (lysosomal GCase): considerably faster than reference compound IFG-tartrate
